Patent USRE46907E1, “Suppression of cancer growth and metastasis using nordihydroguaiaretic acid derivatives with metabolic modulators” (THE JOHNS HOPKINS UNIVERSITY, priority 2008, dated 2018)

Experiments:
67NR cells = assay: TUNEL apoptosis assay in 67NR cells; assay type: cell-based, mouse; details: 48 hr after treatment, M4N 80 μM
Description: (§1) Cell Culture Either cell line 4T1 or 67NR was a gift from Dr. Miller (20). The cells were cultured in RPMI1640 medium supplemented with glucose (14 mM), pyruvate (1 mM), penicillin (100 units/ml), streptomycin (100 μg/ml), and fetal bovine serum (10%), buffered with 25 mM HEPES (pH 7.4). LNCaP human prostate cancer cell line was purchased from American Type Culture Collection (Manassas, Va.). The cell line was cultured in RPMI1640 medium supplemented with glucose (14 mM), pyruvate (1 mM), penicillin (100 units/ml), streptomycin (100 μg/ml), and fetal bovine serum (10%). Drugs were dissolved in dimethyl sulfoxide (DMSO) at a suitable concentration so that the final concentration of DMSO in the medium was less than 0.1%.
Apoptosis assay: Simple TLTNEL assay was conducted by using TUNEL apoptosis detection kit (Upstate, Temecula, Calif.) with some modification. For the evaluation of the effect of PKCδ wild type and dominant negative vectors on TUNEL-positive cell death, we first transfected 4T1 or 67NR cells with these vectors by effectene (Qiagen, Valencia, Calif.). Wild type PKCδ vector is constructed from wild type PKCδ gene and pEGFP (Promega, Madison, Wis.). Dominant negative PKCδ vector is constructed from PKCδ gene mutated at a 376th amino acid residue (threonine) and pEGFP (Promega, Madison, Wis.) This threonine residue is located in ATP-binding domain of protein kinase Cδ, and therefore essential for any kinase reaction of the protein so that this mutant protein supposedly function as dominant negative. As a control we used pEGFP-N3 vector was used. These vectors contain green fluorescent protein (GFP) gene to be used as a transfection marker. The vectors are kind gifts from Dr. Yuspa (National Institutes of Health, Bethesda, Md.) (88). Twenty four hours after transfection, the cells were treated with M4N, Rottlerin, or Ly294002. Then 24 hrs after this treatment with these reagents, the cells were fixed with 10% formaldehyde in phosphate buffered saline without calcium and magnesium (PBS (−)). The cells were then incubated with rabbit anti-GFP antibody (MBL International, Woburn, Mass.) followed by treatment with anti-rabbit IgG antibody conjugated with fluorescein (Promega, Madison, Wis.). TUNEL staining was conducted by using TUNEL apoptosis detection kit (Upstate, Temecula, Calif.) except for using Streptavidin-Alexa Fluor 568 (Molecular Probes, Eugene, Oreg.) instead of Avidine-Rhodamine contained in the kit. Cell death was evaluated by dividing the number of TUNEL-positive cells among the cells positive with anti-GFP staining by the number of these GFP-positive cells.

4T1 cells = assay: MTT cell growth assay in 4T1 cells; assay type: cell-based, mouse
Description: as §1
MTT assay: Cells were incubated in PBS (−) supplemented with 5% fetal calf serum and 0.5 mg/ml MTT, 3-(4,5-Dimethylthiazol-2-yl)-2,5-diphenyltetrazolium bromide (Sigma, Saint Louis, Mo.) for 2 hrs. After the incubation, the cells were dissolved in dimethyl sulfoxide and the color of the solutions was measured by a spectrophotometer at wavelengths of 540 and 690 nm. The values correlated with viable cell numbers were obtained by subtracting the optical density at 690 nm from that, at 540 nm.

PKCδ = assay: Immunocytochemistry of PKCδ cellular localization in LNCaP cells; assay type: cell-based, human; details: 5 hrs
Description: Immunocytocheimstry: Cells were cultured on glass cover slips coated with poly-L-ornithine (Sigma, Saint Louis, Mo.). At 5 hrs after treatment with drugs, the cells were fixed with 10% formaldehyde in diluted in PBS (−) and washed with PBS (−) three times. After permeabilized by 0.2% Tryton X-100 and 1% goat serum diluted in PBS (−), the cells were blocked by PBS (−) containing 5% goat serum. The cells were then incubated with primary antibodies diluted in PBS (−) containing 0.5% bovine serum albumin (BSA), and with secondary antibodies, which is either anti-IgG conjugated with fluorescein (Vector Laboratories. Burlingame, Calif.), diluted in PBS (−) containing 0.5% BSA. The cells were observed through Zeiss fluorescent microscope (Carl Zeiss, Thornwood, N.Y.).

HIF = assay: Western blotting of HIF in 4T1 cells; assay type: cell-based, mouse; details: 4T1, M4N 80 μM
Description: Western blotting: After cells had been grown in […] flasks and treated with reagents, the cells were washed with PBS (−) three times and suspended in RIP A buffer (150 mM NaCl, 50 mM Tris-HCl (pH 8,0), 0.1% SDS, 1% NP40, and 0.5% deoxycholate) supplemented with protease inhibitor cocktail (Calbiochem, San Diego, Calif.). The sample volumes were adjusted by the total protein amount. Protein assay was performed by Bio-Rad Protein Assay (Bio-Rad Laboratories, Inc. Hercules, Calif.). The samples were resolved by the standard SDS-polyacrylamide gel electrophoresis and transferred to nitrocellulose membrane (Amersham Biosciences, Bjorkgatan, Sweden). The membranes were blocked with skim milk, and incubated with primary antibodies at 4° C. overnight and then with secondary antibody conjugated with horse radish peroxidase at room temperature for 2 hrs. The signals were detected by western blot chemiluminescence reagent plus (New England Nuclear Life Science Products, Boston, Mass.).

tumors = details: intravenous infusion, cited from earlier work
[1] = cited from earlier work

Compound: COc1ccc(C[C@@H](C)[C@@H](C)Cc2ccc(OC)c(OC)c2)cc1OC [M4N, tetra-O-methyl nordihydroguaiaretic acid]
- TUNEL-positive cell death (67NR cells): more cell death in 67NR cells than 4T1 cells
- cell growth (MTT) at 20 μM (4T1 cells; 4T1, 20 μM): significant effect of the drug to reduce cell growth
- concentration at which cell growth stopped (4T1 cells; 4T1, MTT): 80 µM
- time after treatment at which effect on cell growth was evident (4T1 cells; 4T1, MTT): 42 h
- cell growth (MTT) (4T1 cells; 4T1, different concentrations of M4N): reduced the cell growth of 4T1 cells depending on the concentration of the drug
- expression and nuclear level of total PKCδ (PKCδ): Neither M4N, Ro, nor Ly treatment caused any remarkable change
- nuclear expression of phosphor-PKCδ (Thr507) (PKCδ): augmented
- effect on Desferoxamine-mediated HIF induction (HIF): slightly suppressed
- disease stabilization in patients (tumors; Phase I/II): long term stabilization of disease in some patients
- tumor shrinkage in patients (tumors): tumor shrinkage has rarely been seen
- toxic effects after oral administration ([1]; mouse, in vivo, po): essentially no toxic effects
- M4N concentration retained in mouse organs ([1]; oral administration, short term and long term feeding): ≤ 906 μg/g of tissue
